Values after ≈ are worked out from the molar mass of the structure shown. Read-outs that look alike come from different tables or passages of the source.
Assays:
Assay type in all cases: cell-based
[1] = tested on: Escherichia coli MC4100 harboring the IMP4213 (E. coli IMP); test: microbe, parasite or virus in culture; settings: 35° C., 22 hours; for MIC: Escherichia coli, 22 h, read-out: MIC (μg/mL) E. coli IMP, E. coli MC4100 IMP4213, increased outer-membrane permeability
Method: (§1) In vitro antimicrobial activity of each compound was determined by measuring minimal inhibitor concentrations (MICs) using the broth micro-dilution technique as approved by the Clinical and Laboratory Standards Institute (CLSI) (Methods for Dilution Antimicrobial Susceptibility Tests for Bacteria that Grow Aerobically; Approved Standard—Eighth Edition. CLSI document M07-A8. Wayne, Pa.: Clinical and Laboratory Standards; 2009). Antibacterial activity was measure against three strains of bacteria: a Methicillin Resistant Staphylococcus aureus strain USA 300, NRS384 (S. aureus); a strain of Escherichia coli MC4100 harboring the IMP4213 (E. coli IMP), which results in increased outer-membrane permeability (B Martin and Silhavy T. Imp/OstA is required for cell envelope biogenesis in Escherichia coli. (2002) Molecular Microbiology, 45(5), 1289-1302), and Escherichia coli ATCC 25922 (E. coli), a clinically relevant Gram-negative strain. Cells were inoculated onto plates of Trypyticase Soy Agar or Luria Agar respectively and grown at 35° C. for 20 hours. Inocula suspensions were prepared by scraping cells into 1 mL of testing media (cation adjusted Mueller Hinton Broth supplemented with 0.002% v/v Tween-80) and diluting to a final OD600 nm of 0.01.
(§2) Test compounds were prepared in DMSO at a concentration of 10 mg/mL. […] In protocol 2, the compound stocks were diluted into testing media at a concentration of 4 μg/mL and serial 2-fold dilutions were made in the same media, in 96-well U bottom microtiter dishes, for a total of 10 compound concentrations. In protocol 3, compound stocks were diluted into testing media at a concentration of 0.5 μg/mL, with serial 2-fold dilutions conducted as described above. […] Inocula suspensions were added to the 2-fold serial dilutions of test compounds to a final density of OD OD600 nm of 0.0005 and incubated at 35° C. for 22 hours.

[2] = tested on: Escherichia coli ATCC 25922; test: Minimum inhibitory concentration, broth micro-dilution (CLSI), E. coli; settings: 35° C., 22 hours; for MIC: Escherichia coli, ATCC25922, 22 h
Method: Cells were inoculated onto plates of Trypyticase Soy Agar or Luria Agar respectively and grown at 35° C. for 20 hours. Inocula suspensions were prepared by scraping cells into 1 mL of testing media (cation adjusted Mueller Hinton Broth supplemented with 0.002% v/v Tween-80) and diluting to a final OD600 nm of 0.01.
as §2

[3] = tested on: Methicillin Resistant Staphylococcus aureus strain USA 300, NRS384; test: Minimum inhibitory concentration, broth micro-dilution (CLSI), S. aureus; settings: 35° C., 22 hours; for MIC: Staphylococcus aureus, MRSA / NRS 384 / USA300, 22 h
Method: as §1, §2

[4] = read-out: MIC (μg/mL) E. coli, E. coli ATCC 25922
[5] = read-out: MIC (μg/mL) S. aureus, MRSA USA 300 NRS384
[6] = MRSA USA 300 NRS384, read-out: MIC (μg/mL) S. aureus
[7] = E. coli ATCC 25922, read-out: MIC (μg/mL) E. coli

Row | Compound | MIC [1] [µg/mL] | MIC [2, 4] [µg/mL] | MIC [3, 5] [µg/mL] | MIC (μg/mL) S. aureus ([3]; MRSA USA 300 NRS384) [µg/mL] | MIC [3, 6] [µg/mL] | MIC [2, 7] [µg/mL] | MIC (μg/mL) E. coli IMP ([1]; E. coli MC4100 IMP4213, increased outer-membrane permeability) [µg/mL] | MIC (μg/mL) E. coli ([2]; E. coli ATCC 25922) [µg/mL]
1 | CCCCCCCCCC(=O)N[C@H](C(=O)N[C@@H](CCN)C(=O)N(C)[C@@H]1C(=O)N[C@@H](C)C(=O)N[C@H](C(=O)NCC#N)Cc2ccc(OCCN)c(c2)-c2cc1ccc2OCCN)C(C)O (single isomer, unassigned) [Compound 357-P1] | 0.5 (≈ 0.56 µM) | 64 (≈ 71.7 µM) | 0.5 (≈ 0.56 µM) |  |  |  |  | 
2 | CCCCCCc1ccc(C(=O)N[C@@H](CCN[C@@H]2[C@@H](O)[C@H](O)[C@@H](CO)O[C@@H]2O)C(=O)N(C)[C@@H]2C(=O)N[C@@H](C)C(=O)N[C@H](C(=O)NCC#N)Cc3ccc(OCCN)c(c3)-c3cc2ccc3OCCN)c(C)c1 [Compound 518] | 0.063 (≈ 0.0629 µM) | 4 (≈ 3.99 µM) | 0.38 (≈ 0.379 µM) |  |  |  |  | 
3 | C[C@@H]1NC(=O)[C@@H](N(C)C(=O)[C@H](CCN)NC(=O)c2cccc3ccccc23)c2ccc(OCCN)c(c2)-c2cc(ccc2OCCN)C[C@@H](C(=O)NCC#N)NC1=O [Compound 492] |  |  |  | 3 (≈ 3.79 µM) | 2 (≈ 2.53 µM) |  |  | 
4 | CCCCCCCCc1ccc(C(=O)N[C@@H](CCN)C(=O)N(C)[C@@H]2C(=O)N[C@@H](C)C(=O)N[C@H](C(=O)NCC#N)Cc3ccc(OCCN)c(c3)-c3cc2ccc3OCCN)c(CCC#N)c1 [Compound 449] | 0.063 (≈ 0.0694 µM) | 1 (≈ 1.1 µM) | 0.094 (≈ 0.104 µM) |  |  |  |  | 
5 | CCCCCCCCCNC(=O)CC(=O)N[C@@H](CCN)C(=O)N(C)[C@@H]1C(=O)N[C@@H](C)C(=O)N[C@H](C(=O)NCC#N)Cc2ccc(OCCN)c(c2)-c2cc1ccc2OCCN [Compound 361] | 0.13 (≈ 0.153 µM) |  |  |  | 0.13 (≈ 0.153 µM) | 16 (≈ 18.8 µM) |  | 
6 | CCCCc1ccc(NC(=O)CC(CCN)C(=O)N(C)[C@@H]2C(=O)N[C@@H](C)C(=O)N[C@H](C(=O)NCC#N)Cc3ccc(OCCN)c(c3)-c3cc2ccc3OCCN)c(C)c1 (mixture of isomers) [Compound 456] | 0.5 |  |  |  | 0.25 | 64 |  | 
7 | CCCCCCCCc1ccc(C(=O)N[C@@H](CCC(N)=O)C(=O)N(C)[C@@H]2C(=O)N[C@@H](C)C(=O)N[C@H](C(=O)NCC#N)Cc3ccc(OCCN)c(c3)-c3cc2ccc3OCCN)c(C)c1 [Compound 247] | 0.094 (≈ 0.105 µM) |  |  |  | 0.094 (≈ 0.105 µM) | 2 (≈ 2.23 µM) |  | 
8 | CCCCc1cccc(C(=O)N[C@@H](CCCN)C(=O)N(C)[C@@H]2C(=O)N[C@@H](C)C(=O)N[C@H](C(=O)NCC#N)Cc3ccc(OCCN)c(c3)-c3cc2ccc3OCCN)c1C [Compound 206] | 0.094 (≈ 0.114 µM) |  |  |  | 0.38 (≈ 0.46 µM) | 16 (≈ 19.4 µM) |  | 
9 | CCCCCCc1ccc(C(=O)N[C@@H]2CN[C@H](C(=O)N(C)[C@@H]3C(=O)N[C@@H](C)C(=O)N[C@H](C(=O)NCC#N)Cc4ccc(OCCN)c(c4)-c4cc3ccc4OCCN)C2)c(C)c1 [Compound 498] | 1 (≈ 1.17 µM) |  |  |  | 0.5 (≈ 0.587 µM) | 16 (≈ 18.8 µM) |  | 
10 | CCCCCCc1ccc(C(=O)N[C@@H](CCNC(=N)N)C(=O)N(C)[C@@H]2C(=O)N[C@@H](C)C(=O)N[C@H](C(=O)NCC#N)Cc3ccc(OCCN)c(c3)-c3cc2ccc3OCCN)c(C)c1 [Compound 485] | 0.031 (≈ 0.0351 µM) |  |  |  | 0.063 (≈ 0.0714 µM) | 2 (≈ 2.27 µM) |  | 
11 | CCc1ccc(-c2ncc(C(=O)N[C@@H](CCN)C(=O)N(C)[C@@H]3C(=O)N[C@@H](C)C(=O)N[C@H](C(=O)NCC#N)Cc4ccc(O)c(c4)-c4cc3ccc4OCCN)c(C)n2)cc1 [Compound 505] | 0.016 (≈ 0.0195 µM) |  |  |  | 0.25 (≈ 0.305 µM) | 2 (≈ 2.44 µM) |  | 
12 | CCCCCCCCCCNCCS(=O)(=O)N[C@@H](CCCN)C(=O)N(C)[C@@H]1C(=O)N[C@@H](C)C(=O)N[C@H](C(=O)NCC#N)Cc2ccc(OCCN)c(c2)-c2cc1ccc2OCCN [Compound 349] | 0.13 (≈ 0.145 µM) |  |  |  | 0.016 (≈ 0.0178 µM) | 8 (≈ 8.9 µM) |  | 
13 | CCCCCCCc1ccc(C(=O)N[C@@H](CCN)C(=O)N(C)[C@@H]2C(=O)N[C@@H](C)C(=O)N[C@H](C(=O)NCC#N)Cc3ccc(OCCN)c(c3)-c3cc2ccc3O)c(C)c1 [Compound 315] | 0.014 (≈ 0.0173 µM) |  |  |  | 0.078 (≈ 0.0962 µM) | 0.38 (≈ 0.469 µM) |  | 
14 | CCCCCCc1ccc(-c2ncc(C(=O)N[C@@H](CCN)C(=O)N(C)[C@@H]3C(=O)N[C@@H](C)C(=O)N[C@H](C(=O)NCC#N)Cc4ccc(O)c(c4)-c4cc3ccc4OCCN)c(C)n2)cc1 [Compound 504] | 0.016 (≈ 0.0183 µM) |  |  |  | 0.094 (≈ 0.107 µM) | 0.25 (≈ 0.286 µM) |  | 
15 | Cc1c(C(=O)N[C@@H](CCN)C(=O)N(C)[C@@H]2C(=O)N[C@@H](C)C(=O)N[C@H](C(=O)NCC#N)Cc3ccc(OCCN)c(c3)-c3cc2ccc3OCCN)cnn1-c1ccc(CC(C)C)cc1 [Compound 444] | 0.031 (≈ 0.0353 µM) |  |  |  | 0.094 (≈ 0.107 µM) | 3 (≈ 3.42 µM) |  | 
16 | C[C@@H]1NC(=O)[C@@H](N(C)C(=O)[C@H](CCCCN)NC(=O)c2ccc(-c3ccc(Cl)cc3)cc2)c2ccc(O)c(c2)-c2cc(ccc2O)C[C@@H](C(=O)NCC#N)NC1=O [Compound 416] | 2 (≈ 2.52 µM) | > 64 | 0.5 (≈ 0.629 µM) |  |  |  |  | 
17 | CCCCCCCCCCNCC(CO)C(=O)N(C)[C@@H]1C(=O)N[C@@H](C)C(=O)N[C@H](C(=O)NCC#N)Cc2ccc(OCCN)c(c2)-c2cc1ccc2OCCN (some centres unmarked) [Compound 525] | > 4 |  |  |  | 1.5 (≈ 1.93 µM) | > 64 |  | 
18 | CCc1ccc(-c2ccc(C(=O)N[C@@H](CCCN)C(=O)N(C)[C@@H]3C(=O)N[C@@H](C)C(=O)N[C@H](C(=O)NCC#N)Cc4ccc(OCCN)c(c4)-c4cc3ccc4OCCN)c(C)c2)cc1 [Compound 152] | 0.014 (≈ 0.016 µM) |  |  |  | 0.031 (≈ 0.0355 µM) | 0.63 (≈ 0.721 µM) |  | 
19 | CCCCCCc1ccc(C(=O)N2CCC(N)C[C@@H]2C(=O)N(C)[C@@H]2C(=O)N[C@@H](C)C(=O)N[C@H](C(=O)NCC#N)Cc3ccc(OCCN)c(c3)-c3cc2ccc3OCCN)c(C)c1 (single isomer, unassigned) [Compound 526-1] | 0.13 (≈ 0.15 µM) |  |  |  | 0.19 (≈ 0.219 µM) | 16 (≈ 18.5 µM) |  | 
20 | CCCCCCCCc1ccc(C(=O)N[C@@H](CCN)C(=O)N(C)[C@@H]2C(=O)N[C@@H](C)C(=O)N[C@H](C(=O)NCC#N)Cc3ccc(OCCN)c(c3)-c3cc2ccc3OCCN)c(CCC(N)=O)c1 [Compound 451] | 0.016 (≈ 0.0173 µM) |  |  |  | 0.023 (≈ 0.0249 µM) | 2 (≈ 2.16 µM) |  | 
21 | CCCCCCCc1ccc(C(=O)NC(CCNC)C(=O)N(C)[C@@H]2C(=O)N[C@@H](C)C(=O)N[C@H](C(=O)NCC#N)Cc3ccc(OCCN)c(c3)-c3cc2ccc3OCCN)c(C)c1 (single isomer, unassigned) [Compound 490-P2] |  |  |  | >0.50 |  |  | >0.13 | 8 (≈ 9.22 µM)
22 | Cc1cc(-c2ccc(CC(C)C)cn2)ccc1C(=O)N[C@@H](CCN)C(=O)N(C)[C@@H]1C(=O)N[C@@H](C)C(=O)N[C@H](C(=O)NCC#N)Cc2ccc(OCCN)c(c2)-c2cc1ccc2OCCN [Compound 173] | 0.016 (≈ 0.018 µM) |  |  |  | 0.094 (≈ 0.106 µM) | 0.31 (≈ 0.349 µM) |  | 
23 | CCCCCCCCc1ccc2c(=O)n([C@@H](CCN)C(=O)N(C)[C@@H]3C(=O)N[C@@H](C)C(=O)N[C@H](C(=O)NCC#N)Cc4ccc(OCCN)c(c4)-c4cc3ccc4OCCN)cnc2c1 [Compound 486] | 0.13 (≈ 0.148 µM) | 3 (≈ 3.41 µM) | 0.094 (≈ 0.107 µM) |  |  |  |  | 
24 | CCCCCCCCc1ccc(C(=O)N[C@@H](CCN)C(=O)N(C)[C@@H]2C(=O)N[C@@H](C)C(=O)N[C@H](C(=O)NCC#N)Cc3ccc(OCCN)c(c3)-c3cc2ccc3OCCN)c(CCC(=O)O)c1 [Compound 447] | 0.012 (≈ 0.013 µM) |  |  |  | 0.13 (≈ 0.14 µM) | 2 (≈ 2.16 µM) |  | 
25 | CCCCCCCCCCN(CCN)CCC(=O)N(C)[C@@H]1C(=O)N[C@@H](C)C(=O)N[C@H](C(=O)NCC#N)Cc2ccc(OCCN)c(c2)-c2cc1ccc2OCCN [Compound 452] | 2 (≈ 2.53 µM) | 64 (≈ 80.8 µM) | 0.19 (≈ 0.24 µM) |  |  |  |  | 
26 | CCCCc1ccc(-c2ncc(C(=O)N[C@@H](CCCN)C(=O)N(C)[C@@H]3C(=O)N[C@@H](C)C(=O)N[C@H](C(=O)NCC#N)Cc4ccc(OCCN)c(c4)-c4cc3ccc4OCCN)c(C)n2)cc1 [Compound 154] | 0.0059 (≈ 0.00653 µM) |  |  |  | 0.012 (≈ 0.0133 µM) | 0.25 (≈ 0.277 µM) |  | 
27 | Cc1cc(-c2ccc(CC(C)C)nn2)ccc1C(=O)N[C@@H](CCN)C(=O)N(C)[C@@H]1C(=O)N[C@@H](C)C(=O)N[C@H](C(=O)NCC#N)Cc2ccc(OCCN)c(c2)-c2cc1ccc2OCCN [Compound 180] | 0.38 (≈ 0.427 µM) |  |  |  | 1 (≈ 1.12 µM) | 8 (≈ 8.99 µM) |  | 
